From ChEMBL document CHEMBL5500415, “Design of a Lead-Like Cysteine-Targeting Covalent Library and the Identification of Hits to Cys55 of Bfl-1” (J Med Chem, 2024) come the findings set out here.

The structures appear in SMILES notation. pIC50: −log10 of the molar value.

For data set [1], the target named is T1, Bcl-2-related protein A1 (Homo sapiens, UniProt Q16548).
T1 sequence (Q16548 whole entry): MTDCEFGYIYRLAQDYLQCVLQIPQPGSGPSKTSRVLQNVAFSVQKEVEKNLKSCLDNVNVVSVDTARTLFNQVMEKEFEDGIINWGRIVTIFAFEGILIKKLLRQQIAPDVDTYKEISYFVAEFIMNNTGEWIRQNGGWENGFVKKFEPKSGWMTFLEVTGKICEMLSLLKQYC
Kind of data set: Inhibition of human recombinant N-terminal his tagged Bfl-1 (1 to 151 residues) expressed in Escherichia coli BL21-Gold (DE3) cells using HyLite Fluor 647-labeled BIM peptide as substrate incubated for 120 mins by TR-FRET assay.

In data set [2] the target is T2, Bcl-2-related protein A1 (Homo sapiens) (UniProt Q16548).
T2 sequence (whole entry): T1 sequence (Q16548 whole entry)
Kind of data set: Binding affinity to N-terminal His6-tagged recombinant human Bfl-1 (1 to 151 residues) expressed in Escherichia coli BL21-Gold (DE3) cells assessed as Kinact/ki incubated for 10 to 90 mins by MS analysis. The conditions noted are these: time 10-90 min.

Data set [3] in a line: Lipophilicity, logD of compound at pH 7.4 by shake-flask method. The conditions noted are these: buffer. In kind it is physicochemical.
A short description of data set [4]: GSH reactivity assessed as half life at pH 7.4 incubated for 24 hrs by LC-UV-MS analysis. The conditions noted are these: glutathione (GSH) solution. In kind it is physicochemical.

A word on the pIC50: it is −log10 of the IC50, conventionally taken in molar units. On to `C=CC(=O)N(C)[C@@H](c1ccc(Cl)cc1)C1CCOCC1` (racemic), for which the pIC50 in data set [1] was 4.04. Also, in data set [2], the K worked out at 0.8 M⁻¹ s⁻¹.

Take `C=CC(=O)N1C[C@@H](Oc2cc(Cl)c(F)cc2C#N)[C@H]1CCC` (racemic): the pIC50 in data set [1] is 4.98. For the same molecule, in data set [2], the K is 9.5 M⁻¹ s⁻¹.

Turning to `C=CC(=O)N(Cc1ccccc1OCC(N)=O)c1ccc(Cl)cc1`, the pIC50 in data set [1] was 4.77. In addition, in data set [2], the K was 5.5 M⁻¹ s⁻¹.

For `C=CC(=O)Nc1cc(CN2CCCC2)ccc1-c1ccc(OC)cc1C`, the pIC50 in data set [1] was 4.74. In addition, the K in data set [2] worked out at 6.8 M⁻¹ s⁻¹.

Broadly, the logD is the decadic logarithm of the distribution of all forms, ionised or not, between an organic phase and buffer at a given pH. Low values mean a more hydrophilic compound, high ones a more lipophilic compound. As usually defined, the half-life is the time in which the quantity being followed falls by half. Molecule `C=CC(=O)N1CCC[C@@H]1c1ccccc1` showed a logD in data set [3] of 1.7. The negative logarithm of the IC50 (pIC50) in data set [1] is 3.32. The K in data set [2] was 0.7 M⁻¹ s⁻¹. Besides, the half-life in data set [4] came out at 13.7 h.

Turning to `C=CC(=O)N(Cc1ccc(OC)cc1)c1cccc(Cl)c1`, in data set [1], the negative logarithm of the IC50 (pIC50) is 4.63. For the same molecule, the K in data set [2] amounted to 7.5 M⁻¹ s⁻¹.
